According to patent EP0121972A2, “N-aryl-alpha-amino-carboxamides” (JANSSEN PHARMACEUTICA N.V., priority 1983, dated 1984):
Structures can show the parent of a compound that is named as a salt.

Test system: multifocal ventricular arrhythmia
Assay: Antiarrhythmic effect in dogs with ventricular arrhythmia after coronary artery ligation
Format: in vivo
Details: given intravenously; for minimal effective dose: Canis lupus familiaris, iv, lowest effective dose normalizing the cardial rhythm, about 16 hours after ligation of the anterior descendent branch of the left coronary artery, under neuroleptanalgesia, read-out: Antiarrhythmic effects in dogs LED in mg/kg body weight; for Antiarrhythmic effects in dogs duration: duration of action at the lowest effective dose, coronary-ligated dogs
Method: The compounds of formula (I) and their pharmaceutically acceptable acid addition salts and possible stereochemically isomeric forms thereof show excellent antiarrhythmic properties and as such they are useful in the normalization of irregular cardial rhythms. The antiarrhythmic effect of the compounds of this invention is clearly illustrated in the following experiment in dogs. The test was carried out under neuroleptanalgesia (1 ml per 10 kg body weight of fentanyl (0.4 mg/ml) and droperidol (20 mg/ml)).
The test compounds were given intravenously after a control period of 30 minutes.

SMILES: CCN(CC)C1(C(=O)Nc2cc(Cl)ccc2C)CCN(C2CCCC2)CC1 [compound 166, N-(5-chloro-2-methylphenyl)-l-cyclopentyl-4-(diethylamino)-4-piperidinecarboxamide dihydrochloride hemihydrate]
- minimal effective dose: 0.63 mg/kg
- Antiarrhythmic effects in dogs duration: 200 min

SMILES: Cc1cccc(C)c1NC(=O)C1(N(C)C)CCN(CCO)CC1 [compound 167, 4-(dimethylamino)-N-(2,6-dimethylphenyl)-1-(2-hydroxyethyl)-4-piperidinecarboxamide]
- minimal effective dose: 0.31 mg/kg
- Antiarrhythmic effects in dogs duration: 220 min

SMILES: CCN(C)C1(C(=O)Nc2c(C)cccc2C)CCN(C(C)C(N)=O)CC1 (stereo not shown) [compound 174]
- minimal effective dose: 1.25 mg/kg
- Antiarrhythmic effects in dogs duration: 120 min

SMILES: CCNC1(C(=O)Nc2c(C)cccc2C)CCN(C(C)C)CC1 [compound 189, N-(2,6-dimethylphenyl)-4-(ethylamino)-l-(l-methylethyl)-4-piperidinecarboxamide]
- minimal effective dose: 0.63 mg/kg
- Antiarrhythmic effects in dogs duration: 175 min

SMILES: Cc1cccc(C)c1NC(=O)C1(N)CCN(C2CCCC2)CC1 [compound 190, 4-amino-l-cyclopentyl-N-(2,6-dimethylphenyl)-4-piperidinecarboxamide]
- minimal effective dose: 1.25 mg/kg
- Antiarrhythmic effects in dogs duration: 110 min

SMILES: Cc1cccc(C)c1NC(=O)C1(N(C)C)CCN(CC(O)CN)CC1 (stereo not shown) [compound 191, 1-(3-amino-2-hydroxypropyl)-4-(dimethylamino)-N-(2,6-dimethylphenyl)-4-piperidinecarboxamide]
- minimal effective dose: 1.25 mg/kg
- Antiarrhythmic effects in dogs duration: 20 min

SMILES: Cc1cccc(C)c1NC(=O)C1(N(C)C)CCN([C@H]2CC[C@@H](O)C[C@@H]2O)CC1 [compound 202, (+)-[1-(1α,2β,4α)]-1-(2,4-dihydroxycyclohexyl)-4-(dimethylamino)-N-(2,6-dimethylphenyl)-4-piperidinecarboxamide]
- minimal effective dose: 0.31 mg/kg
- Antiarrhythmic effects in dogs duration: 5 min

SMILES: CCN1CCC(O)C(N2CCC(C(=O)Nc3c(C)cccc3C)(N(C)C)CC2)C1 (stereo not shown) [compound 212]
- minimal effective dose: 0.31 mg/kg
- Antiarrhythmic effects in dogs duration: 60 min
